Measurements as given in patent publication US9155791B2, “Metallation enhancements in tumor-imaging and PDT therapy” (Health Research, Inc., priority 2010, dated 2015).

Tested on: tumors
Test: Fluorescence tumor imaging dose versus PDT therapeutic dose (FIG. 4)
Type: in vivo

Question: Which “therapeutic dose relative to tumor-imaging dose (fold higher)” value does the source give for `CCCCCCOC(C)c1c(C)c2cc3nc(c4c5[nH]c(cc6nc(cc1[nH]2)C(C)=C6CC)c(C)c5C(=O)C4)C(CCC(=O)Nc1ccc(SC2=C(C=CC4=[N+](CCCCS(=O)(=O)[O-])c5ccc6ccccc6c5C4(C)C)CCCC2=CC=C2N(CCCCS(=O)(=O)[O-])c4ccc5ccccc5c4C2(C)C)cc1)C3C.[Na+]` (stereo not shown) [HPPH-CD] here?
Answer: ~10 fold
